Measured values published in ChEMBL document CHEMBL2029344, “A new class of prolylcarboxypeptidase inhibitors, part 2: the aminocyclopentanes” (Bioorg Med Chem Lett, 2012).

Experiments:
[1] = Ratio of drug uptake in brain to plasma of C57 mouse at 30 mg/kg, po after 20 hrs by LC/MS analysis; assay type: ADME, organism-based; set-up: dose 30 mg/kg, route oral; details: read-out: BPR
Mus musculus [2] = assay: Dose normalized AUC in mouse at 1 mg/kg, iv and 30 mg/kg, po; assay type: ADME, organism-based; details: in vivo
[3] = Volume of distribution in mouse at 1 mg/kg, iv and 30 mg/kg, po; assay type: ADME, organism-based; details: in vivo
Mus musculus [4] = assay: Ex-vivo inhibition of PrCP in heat inactivated 100% plasma of C57 mouse assessed as target engagement at 30 mg/kg, po after 20 hrs by FRET analysis; assay type: functional; set-up: scale not given: the % may be the effect or the level left
Mus musculus [5] = assay: Ex-vivo inhibition of PrCP in heat inactivated 100% plasma of C57 mouse assessed as target engagement calculated as [cmpd]plasma/([cmpd]plasma + Ki (heat inactivated plasma))x100 at 30 mg/kg, po after 20 hrs by FRET analysis; assay type: functional; set-up: scale not given: the % may be the effect or the level left
[6] = Clearance in mouse at 1 mg/kg, iv and 30 mg/kg, po; assay type: ADME, organism-based; details: in vivo
[7] = Oral bioavailability in mouse at 30 mg/kg; assay type: ADME, organism-based; details: in vivo
[8] = Percentage unbound in 10% mouse plasma; assay type: ADME, cell-free
[9] = biological target: T1, Lysosomal Pro-X carboxypeptidase (Mus musculus, UniProt Q7TMR0); assay: Inhibition of mouse PrCP
T1 sequence (Q7TMR0 whole entry): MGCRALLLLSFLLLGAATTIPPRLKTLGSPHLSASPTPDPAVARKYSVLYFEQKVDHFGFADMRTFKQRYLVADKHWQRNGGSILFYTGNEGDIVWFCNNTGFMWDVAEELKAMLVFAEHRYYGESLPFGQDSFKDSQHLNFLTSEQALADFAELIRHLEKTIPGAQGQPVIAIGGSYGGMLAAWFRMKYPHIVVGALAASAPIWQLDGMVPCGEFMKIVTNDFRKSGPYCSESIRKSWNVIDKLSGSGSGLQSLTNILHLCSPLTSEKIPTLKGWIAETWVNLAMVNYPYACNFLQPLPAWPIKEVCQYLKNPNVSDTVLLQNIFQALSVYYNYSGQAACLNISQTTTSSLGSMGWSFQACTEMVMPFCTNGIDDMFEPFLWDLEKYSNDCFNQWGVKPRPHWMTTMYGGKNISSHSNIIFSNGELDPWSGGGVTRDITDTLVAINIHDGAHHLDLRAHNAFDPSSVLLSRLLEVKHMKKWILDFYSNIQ

[10] = Percentage unbound in 10% human plasma; assay type: ADME, cell-free
[11] = Stability in human liver microsomes after 30 mins by LC/MS analysis; assay type: ADME, Microsome; details: read-out: Stability
Mus musculus [12] = assay: Ex-vivo inhibition of po dosed mouse PrCP by FRET analysis in absence of plasma; assay type: functional, organism-based
Mus musculus [13] = assay: Ex-vivo inhibition of po dosed mouse PrCP by FRET analysis in presence of heat inactivated 100% plasma; assay type: functional, organism-based
Mus musculus [14] = assay: Ex-vivo inhibition of po dosed mouse PrCP by FRET analysis in presence of heat inactivated 25% plasma; assay type: functional, organism-based
[15] = Stability in mouse liver microsomes after 30 mins by LC/MS analysis; assay type: ADME, Microsome; details: read-out: Stability

Compound	Kp at 20 h [1]	AUC/dose (Mus musculus [2])	Vd [3]	Activity (Mus musculus [4])	Activity (Mus musculus [5])	clearance [6]	bioavailability [7]	fraction unbound [8]	IC50 [9]	fraction unbound [10]	remaining at 0.5 h [11]	Ki (Mus musculus [12])	Ki (Mus musculus [13])	Ki (Mus musculus [14])	remaining at 0.5 h [15]
Cc1cc(C2CCN(C(=O)[C@@H]3CN(C(C)(C)C)C[C@H]3c3ccc(F)cc3F)CC2)n(-c2cc(Cl)ccc2Cl)n1	1.35	0.19 µM·kg·h/mg	13 L/kg	97.7%	99.8%	48 mL/min/kg	31%								
Cc1nc(C2CCN(C(=O)[C@@H]3CN(C(C)(C)C)C[C@H]3c3ccc(F)cc3F)CC2)n(-c2ccc(Cl)c(C)c2)n1		0.05 µM·kg·h/mg	17 L/kg			128 mL/min/kg	20%								
Cc1nc(C2CCN(C(=O)[C@@H]3C[C@@H](N(C)C)C[C@H]3c3ccc(F)cc3F)CC2)n(-c2ccc(Cl)c(C)c2)n1								0.32	41 nM	0.22					
Cc1nc(C2CCN(C(=O)[C@@H]3C[C@H](N(C)C)C[C@H]3c3ccc(F)cc3F)CC2)n(-c2ccc(Cl)c(C)c2)n1									65 nM						
Cc1nc(C2CCN(C(=O)[C@@H]3C[C@@](C)(N(C)C)C[C@H]3c3ccc(F)cc3F)CC2)n(-c2ccc(Cl)c(C)c2)n1								0.22	2.5 nM	0.05	27%	2.9 nM	16.6 nM	6.3 nM	47%
Cc1nc(C2CCN(C(=O)[C@@H]3C[C@@](C)(N)C[C@H]3c3ccc(F)cc3F)CC2)n(-c2ccc(Cl)c(C)c2)n1								0.102	85.1 nM	0.076	78%	11 nM	73.9 nM	26.7 nM	72%
Cc1nc(C2CCN(C(=O)[C@@H]3C[C@@](C)(N(C)C)C[C@H]3c3ccc(F)cc3F)CC2)n(-c2cc(Cl)ccc2Cl)n1								0.14	2 nM	0.33	18%	1 nM	1 nM	1 nM	6%
Cc1nc(C2CCN(C(=O)[C@@H]3C[C@@](C)(N)C[C@H]3c3ccc(F)cc3F)CC2)n(-c2cc(Cl)ccc2Cl)n1								0.091	4.1 nM	0.245	79%	3.7 nM	8 nM	4.7 nM	79%
Cc1nc(C2CCN(C(=O)[C@@H]3C[C@@](C)(N(C)C)C[C@H]3c3ccc(F)cc3F)CC2)n(-c2ccc(F)c(Cl)c2)n1								0.22		0.32		1.1 nM	1.1 nM	1.1 nM	
Cc1nc(C2CCN(C(=O)[C@@H]3C[C@@](C)(N)C[C@H]3c3ccc(F)cc3F)CC2)n(-c2ccc(F)c(Cl)c2)n1								0.127	11.2 nM	0.205		4.6 nM	4.6 nM	4.6 nM	
